The assay relates to c-Myc. The assay is described as follows: c-Myc immunofluorescence assay. The assay is classed as cell-based, human. The settings on record: A549 cells, 24 hours, anti-c-Myc immunofluorescence. The gist of the method:
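Read-out is imaged c-Myc immunofluorescence, nucleus-segmented, in A549 lung carcinoma cells exposed to compound dose series for 24 h after 48 h growth. Fixation 4% paraformaldehyde, Triton permeabilization, antibody staining at room temperature; EC50 from logistic fit of signal versus concentration.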

Consider `COc1ccc(-c2noc(C3CCC(C(=O)NCC4CCN(CCO)C4)CC3)n2)cc1` (stereo not shown) [Compound 215, (1s,4s)-N-((1-(2-hydroxyethyl)pyrrolidin-3-yl)methyl)-4-(3-(4-methoxyphenyl)-1,2,4-oxadiazol-5-yl)cyclohexane-1-carboxamide], for which the “Myc Efficacy (−LogEC50)” value was “+ (+ >3 and <5)”. The same measure for `COc1ccc(-c2noc(N3CCC(C(=O)NCC4CCN(C(C)C5CCOCC5)C4)CC3)n2)cc1` (stereo not shown) [Compound 416, 1-(3-(4-methoxyphenyl)-1,2,4-oxadiazol-5-yl)-N-((1-(1-(tetrahydro-2H-pyran-4-yl)ethyl)pyrrolidin-3-yl)methyl)piperidine-4-carboxamide]: “+ (+ >3 and <5)”; for `CCCN1CCC(NC(=O)C2CCN(c3nc(-c4ccc(OC)cc4)no3)CC2)CC1` [Compound 251, 1-(3-(4-methoxyphenyl)-1,2,4-oxadiazol-5-yl)-N-(1-propylpiperidin-4-yl)piperidine-4-carboxamide]: “− (− ≤3)”; for `COc1ccc(-c2noc(N3CCC(C(=O)NCC4CCN(Cc5ccoc5)C4)CC3)n2)cc1` (stereo not shown) [Compound 330, N-((1-(furan-3-ylmethyl)pyrrolidin-3-yl)methyl)-1-(3-(4-methoxyphenyl)-1,2,4-oxadiazol-5-yl)piperidine-4-carboxamide]: “+ (+ >3 and <5)”.

Turning to `COc1ccc(-c2noc(N3CCC(C(=O)NCC4CCN(Cc5cccc(C)c5)C4)CC3)n2)cc1` (stereo not shown) [Compound 349, 1-(3-(4-methoxyphenyl)-1,2,4-oxadiazol-5-yl)-N-((1-(3-methylbenzyl)pyrrolidin-3-yl)methyl)piperidine-4-carboxamide], the “Myc Efficacy (−LogEC50)” value was “++ (++ ≥5 and <6)”. As for `COc1ccc(-c2noc(N3CCC(C(=O)NCc4nc5ccccc5o4)CC3)n2)cc1` [Compound 420, N-(benzo[d]oxazol-2-ylmethyl)-1-(3-(4-methoxyphenyl)-1,2,4-oxadiazol-5-yl)piperidine-4-carboxamide], the “Myc Efficacy (−LogEC50)” value is “+ (+ >3 and <5)”. Consider `Cc1ccc(CN2CCC(CNC(=O)C3CCN(c4nc(-c5ccc(OCCO)cc5)no4)CC3)C2)cc1` (stereo not shown) [Compound 463, 1-(3-(4-(2-hydroxyethoxy)phenyl)-1,2,4-oxadiazol-5-yl)-N-((1-(4-methylbenzyl)pyrrolidin-3-yl)methyl)piperidine-4-carboxamide], for which the “Myc Efficacy (−LogEC50)” value was “+ (+ >3 and <5)”. The result for `COc1ccc(-c2noc(N3CCC(C(=O)NCC4CCN(Cc5ccncc5C)C4)CC3)n2)cc1` (stereo not shown) [Compound 348, 1-(3-(4-methoxyphenyl)-1,2,4-oxadiazol-5-yl)-N-((1-((3-methylpyridin-4-yl)methyl)pyrrolidin-3-yl)methyl)piperidine-4-carboxamide] reads “++ (++ ≥5 and <6)”; that for `COc1ccccc1-c1noc(N2CCC(C(=O)NCC3CCN(Cc4ccc(C)cc4)C3)CC2)n1` (stereo not shown) [Compound 189, 1-(3-(2-methoxyphenyl)-1,2,4-oxadiazol-5-yl)-N-((1-(4-methylbenzyl)pyrrolidin-3-yl)methyl)piperidine-4-carboxamide], “+ (+ >3 and <5)”. The same measure for `Cc1ccc(CN2CCC(CNC(=O)C3CCN(c4nc(-c5ccc(C#N)cc5)no4)CC3)C2)nc1` (stereo not shown) [Compound 244, 1-(3-(4-cyanophenyl)-1,2,4-oxadiazol-5-yl)-N-((1-((5-methylpyridin-2-yl)methyl)pyrrolidin-3-yl)methyl)piperidine-4-carboxamide]: “+ (+ >3 and <5)”. In the case of `COc1cnc(-c2noc(N3CCC(C(=O)NCC4CCN(Cc5ccc(C)cc5)C4)CC3)n2)cn1` (stereo not shown) [Compound 233, 1-(3-(5-methoxypyrazin-2-yl)-1,2,4-oxadiazol-5-yl)-N-((1-(4-methylbenzyl)pyrrolidin-3-yl)methyl)piperidine-4-carboxamide], the “Myc Efficacy (−LogEC50)” value was “+ (+ >3 and <5)”. The same measure for `COc1ccc(-c2csc(N3CCC(C(=O)NCC4CCN(Cc5ccc(C)cc5)C4)CC3)n2)cc1` (stereo not shown) [Compound 160, 1-(4-(4-methoxyphenyl)thiazol-2-yl)-N-((1-(4-methylbenzyl)pyrrolidin-3-yl)methyl)piperidine-4-carboxamide]: “++ (++ ≥5 and <6)”; for `O=C(NCCCN1CCC(Oc2ccccc2)CC1)N1CCN(c2nc(-c3ccc(OC(F)(F)F)cc3)no2)CC1` [Compound 428, N-(3-(4-phenoxypiperidin-1-yl)propyl)-4-(3-(4-(trifluoromethoxy)phenyl)-1,2,4-oxadiazol-5-yl)piperazine-1-carboxamide]: “+++ (+++ ≥6)”. The result for `COc1ccc(-c2noc(N3CCC(C(=O)NCc4ccc5c(c4)CCO5)CC3)n2)cc1` [Compound 281, N-((2,3-dihydrobenzofuran-5-yl)methyl)-1-(3-(4-methoxyphenyl)-1,2,4-oxadiazol-5-yl)piperidine-4-carboxamide] reads “+ (+ >3 and <5)”; that for `COc1ccc(-c2noc(N3CCC(C(=O)NCC4CCN(Cc5csc(C)n5)C4)CC3)n2)cc1` (stereo not shown) [Compound 383, 1-(3-(4-methoxyphenyl)-1,2,4-oxadiazol-5-yl)-N-((1-((2-methylthiazol-4-yl)methyl)pyrrolidin-3-yl)methyl)piperidine-4-carboxamide], “++ (++ ≥5 and <6)”. The result for `COc1ccc(-c2noc(N3CCC(C(=O)NC4(C(O)c5ccccc5)CC4)CC3)n2)cc1` (stereo not shown) [Compound 258, N-(1-(hydroxy(phenyl)methyl)cyclopropyl)-1-(3-(4-methoxyphenyl)-1,2,4-oxadiazol-5-yl)piperidine-4-carboxamide] reads “+ (+ >3 and <5)”; that for `CCc1ccc(CNC(=O)C2CCN(c3nc(-c4ccc(OC)cc4)no3)CC2)cc1` [Compound 126, N-(4-ethylbenzyl)-1-(3-(4-methoxyphenyl)-1,2,4-oxadiazol-5-yl)piperidine-4-carboxamide], “+ (+ >3 and <5)”; that for `COc1ccc(-c2noc(N3CCC(C(=O)N[C@@H](CO)c4ccccc4)CC3)n2)cc1` [Compound 265, (R)-N-(2-hydroxy-1-phenylethyl)-1-(3-(4-methoxyphenyl)-1,2,4-oxadiazol-5-yl)piperidine-4-carboxamide], “+ (+ >3 and <5)”.

For `COc1ccc(-c2noc(N3CCC(C(=O)NCCN(C)C4CC4)CC3)n2)cc1` [Compound 314, N-(2-(cyclopropyl(methyl)amino)ethyl)-1-(3-(4-methoxyphenyl)-1,2,4-oxadiazol-5-yl)piperidine-4-carboxamide], the “Myc Efficacy (−LogEC50)” value is “+ (+ >3 and <5)”. The result for `CNC(=O)C1CCN(c2nc(-c3ccc(OC)cc3)no2)CC1` [Compound 137, 1-(3-(4-methoxyphenyl)-1,2,4-oxadiazol-5-yl)-N-methylpiperidine-4-carboxamide] reads “+ (+ >3 and <5)”. Regarding `COc1ccc(-c2noc(N3CCC(C(=O)NCC4CCN(CC5CCCCC5)C4)CC3)n2)cc1` (stereo not shown) [Compound 338, N-((1-(cyclohexylmethyl)pyrrolidin-3-yl)methyl)-1-(3-(4-methoxyphenyl)-1,2,4-oxadiazol-5-yl)piperidine-4-carboxamide], the “Myc Efficacy (−LogEC50)” value is “++ (++ ≥5 and <6)”. With `COc1ccc(-c2noc(N3CCC(C(=O)N[C@@H]4CC[C@H](O)C4)CC3)n2)cc1` [Compound 274, N-((1R,3S)-3-hydroxycyclopentyl)-1-(3-(4-methoxyphenyl)-1,2,4-oxadiazol-5-yl)piperidine-4-carboxamide], the “Myc Efficacy (−LogEC50)” value was “+ (+ >3 and <5)”.

Source of the values: US12344600B2, “c-Myc mRNA translation modulators and uses thereof in the treatment of cancer” (Anima Biotech Inc., priority 2022, dated 2025).
